The values that follow come from patent publication US20190358242A1, “COMPOSITIONS, KITS, AND METHODS TO INDUCE ACQUIRED CYTORESISTANCE USING STRESS PROTEIN INDUCERS” (FRED HUTCHINSON CANCER RESEARCH CENTER, priority 2017, published 2019).

Data set [1] has as its system IL-10 protein. The data set is described as follows: Cardiac IL-10 protein (ELISA). The data set is classed as in vivo, CD-1 mice. How it is done: (§1) Thirty-two mice were divided into 4 equal groups: (1) control mice; (2) mice treated with 1 mg of N-Mgb injection (as a bolus through the tail vein); (3) mice treated with […] of SnPP (via tail vein); and (4) mice treated with combined N-Mgb 1 SnPP. After either 4 hours (n=16) or 18 hours (n=16), the mice were deeply anesthetized with pentobarbital (50 mg/kg), the abdomen was opened through a midline abdominal incision, and the kidneys were removed. To determine potential effects on extrarenal organs, a liver lobe and the heart were also removed. The tissues were iced and then extracted for protein and RNA (RNeasy Plus Mini; Qiagen, Valencia, Calif.) and subjected to enzyme linked immunosorbent assay (ELISA) and reverse transcriptase polymerase chain reaction (RT-PCR) for HO-1, haptoglobin, and IL-10 protein and messenger RNAs (mRNAs). Zager et al. J Am Soc Nephrol 2014; 25:998-1012; Zager et al. Am J Physiol 2012; 303:F139-48. As an assessment of renal function, control mice and the 18 hour after N-Mgb+SnPP-treated mice had blood urea nitrogen (BUN) and plasma creatinine levels measured. Additionally, transverse 10% formalin fixed kidney sections ([…]) were cut and stained with hematoxylin and eosin (H&E) and periodic acid Schiff (PAS) to further assess potential injury.

The subject of data set [2] is HO-1 mRNA. The data set is described as follows: Kidney HO-1 mRNA (RT-PCR). The data set is classed as in vivo, CD-1 mice. As for the experimental part: as §1
Data set [3] has as its system IL-10 protein. Kind of data set: Kidney IL-10 protein (ELISA). The data set is classed as in vivo, CD-1 mice. As for the experimental part: as §1
Data set [4] has as its system IL-10 mRNA. Kind of data set: Kidney IL-10 mRNA (RT-PCR). Format: in vivo, CD-1 mice. As for the experimental part:
as §1

The conditions of data set [5]: Berglund 1988; Kappas 1988; Reddy 2003; cited from earlier work.
The subject of data set [6] is ferritin heavy chain. Kind of data set: Kidney ferritin heavy chain expression (Western blotting). Format: in vivo, mice. As to conditions: 18 hrs following 1 umole SnPP, 1 mg FeS or combined. How it is done: FIG. 32. Ferritin heavy chain expression (as determined by Western blotting) in kidneys 18 hrs following 1 umole tin protoporphyrin (SnPP), 1 mg Fe sucrose (FeS) or combined SnPP+FeS treatment.

Data set [7] has as its system HO-1 protein. Kind of data set: Cardiac HO-1 protein (ELISA). Format: in vivo, CD-1 mice. The conditions noted are these: 18 h after IV injection. How it is done:
as §1

Data set [8] has as its system glycerol model of rhabdomyolysis-induced AKI. Kind of data set: Glycerol model of rhabdomyolysis-induced AKI. The conditions noted are these: IV pretreatment 18 h before glycerol; 18 hours after glycerol. The data set is classed as in vivo, CD-1 mice. How it is done:
Assessments of cytoresistance. Glycerol model of rhabdomyolysis-induced AKI. Twenty mice were divided into 4 equal groups (controls, mice treated with N-Mgb, SnPP, and mice treated with N-Mgb+SnPP tail vein injections) as described previously. 18 hours later, the mice were briefly anesthetized with isoflurane and immediately injected with 9 mL/kg of 50% glycerol, administered in equally divided doses into each hind limb. At 18 hours after glycerol injection, the mice were anesthetized with pentobarbital, the abdomen was opened, a blood sample for BUN and creatinine assessments was obtained from the vena cava, and the kidneys were resected. The control post-glycerol group and the N-Mgb+SnPP-pretreated glycerol group had kidney sections stained with H&E.
To assess whether the previously determined plasma and kidney HO-1 and haptoglobin levels correlated with degrees of cytoresistance, additional mice were injected with 0, 2.5, or 5 mg of N-Mgb […] of SnPP (n=3 mice per group). Eighteen hours later, all mice were subjected to the glycerol AKI model as described previously. Severities of AKI were determined 18 hours after glycerol injection by BUN and plasma creatinine analyses.
Calculations and statistics. All values are given as the mean […] standard error of the mean. Statistical comparisons were made by unpaired Student's t test. […]

The test system of data set [9] is Mgb-exposed cultured proximal tubule (HK-2) cells. The conditions noted are these: Zager & Burkhart, Kidney Int 1997; cited from earlier work.
The test system of data set [10] is haptoglobin mRNA. The data set is described as follows: SnPP vs. SnMeP: renal cortical haptoglobin mRNA induction (RT-PCR). As to conditions: 1 umole, 4 hrs post injection, n 3. Format: in vivo, mice. An excerpt:
FIG. 28. Comparison of SnPP vs. SnMeP effects on renal cortical HO-1 and haptoglobin mRNA induction 4 hrs post agent injection. Mice received either 1 umole tin protoporphyrin (SnPP), tin mesoporphyrin (SnMeP), or vehicle (n, 3 each) and 4 hrs renal cortical RNA was extracted and subjected to RT-PCR.

[11] abbreviates: 4 h after IV injection, N-Mgb 1 mg, SnPP 1 mmol [sic].

Bounds are passed on as bounds.

`C=Cc1c2[n-]c(c1C)/C=c1\[n-]/c(c(C)c1C=C)=C\c1[n-]c(c(CCC(=O)O)c1C)/C=c1\[n-]c(c(C)c1CCC(=O)O)=C2.[Sn+4]` [SnPP, tin protoporphyrin]: the “Cardiac Protein IL-10” value in [1] (4 h after IV injection) is 15.8 ± 10^. In data set [1] (18 h after IV injection), the “Cardiac protein IL-10 (L-10 [sic])” value was 23.4 ± 14^. Further, the “Kidney mRNA HO-1” value in data set [2] (setting [11]) is reported as 4.38 ± 0.28. Moreover, the “Renal HO-1 mRNA increase, in words” value in [2] (4 hour, agent alone) is given as “only modest increases”. For the same compound, the “Kidney mRNA cortex HO-1” value in [2] (18 h after IV injection) stood at 0.63 ± 0.06. For the same compound, in data set [3] (setting [11]), the “Kidney IL-10 protein” value worked out at 550 ± 86. For the same compound, the “Kidney protein IL-10” value in data set [3] (18 h after IV injection) was 454 ± 51. Further, the “Renal IL-10 protein increase, in words” value in data set [3] (18 hours, agent alone) was “absence of IL-10 protein increases”. Further, the “Impact on renal IL-10 mRNA levels, in words” value in data set [4] (4-hour time point, agent alone) is recorded as “either minimal or no impact”. Further, the “Kidney mRNA IL-10” value in [4] (setting [11]) is on record as 0.39 ± 0.15. In data set [4] (18 h after IV injection), the “Kidney mRNA cortex IL-10” value came to 0.18 ± 0.09. The Tolerability in humans result in data set [5] is listed as “well tolerated in humans”. Besides, the “Ferritin heavy chain protein levels in kidney” value in [6] was “weak effect”. The “Cardiac protein HO-1” value in [7] amounted to 2.67 ± 0.4. The “Protection against glycerol-induced AKI judged by BUN/creatinine levels” value in data set [8] is “virtually no effect”. Also, the “Reduction of Mgb toxicity” value in [9] is no more than 85%. In [10], the “Renal cortical haptoglobin mRNA induction” value is reported as “raised”.
